Starred links: 1 amine or outer side, 2 acyl side, 3 side chain; linkers in the order of their positions; H or OH if unused. Non-standard residues stand in square brackets, D forms with d. Groups on a side chain read outwards from the residue. *: point of attachment. C18 diacid = O=C(O)CCCCCCCCCCCCCCCCC(=O)*; αMePhe(2-F) = C[C@](N)(Cc1ccccc1F)C(=O)O; γGlu = O=C(O)[C@H](CCC(=O)[*:2])N[*:1]; αMeY = C[C@](N)(Cc1ccc(O)cc1)C(=O)O; 4Pal = N[C@@H](Cc1ccncc1)C(=O)O; αMeL = CC(C)C[C@](C)(N)C(=O)O; αMeS = C[C@](N)(CO)C(=O)O; Orn = NCCC[C@H](N)C(=O)O; Aib = CC(C)(N)C(=O)O
What was measured:
Assay type in all cases: cell-based
[1] = target: T1, hGIPR (Homo sapiens, UniProt P48546); experiment: Functional cAMP activity in the presence of 1% HSA; details: read-out: cAMP Rel EC50, hGIPR
T1 sequence (P48546 22-466): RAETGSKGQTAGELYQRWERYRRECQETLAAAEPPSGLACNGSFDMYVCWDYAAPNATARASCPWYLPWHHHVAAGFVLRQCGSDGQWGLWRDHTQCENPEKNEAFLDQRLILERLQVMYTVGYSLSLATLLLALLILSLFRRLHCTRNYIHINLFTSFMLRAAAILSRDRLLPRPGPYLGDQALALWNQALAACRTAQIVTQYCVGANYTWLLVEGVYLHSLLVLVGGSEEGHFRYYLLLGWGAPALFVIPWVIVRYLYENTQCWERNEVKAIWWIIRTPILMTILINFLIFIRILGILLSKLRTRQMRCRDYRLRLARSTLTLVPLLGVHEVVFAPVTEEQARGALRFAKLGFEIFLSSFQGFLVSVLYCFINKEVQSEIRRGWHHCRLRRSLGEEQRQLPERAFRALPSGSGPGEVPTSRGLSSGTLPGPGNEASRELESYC

[2] = target: T2, hGLP-1R (Homo sapiens, UniProt P43220); experiment: Functional cAMP activity in the presence of 1% HSA; details: read-out: cAMP Rel EC50, hGLP-1R
[3] = target: human GcgR (Homo sapiens, UniProt P47871); experiment: Functional cAMP activity in the presence of 1% HSA; details: read-out: cAMP Rel EC50, hGcgR
[4] = target: T1, hGIPR; experiment: Functional cAMP activation in the presence of 0.1% casein (no HSA); details: read-out: Relative cAMP EC50, hGIPR;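 for Relative cAMP EC50, hGIPR: intracellular cAMP rise after 30 min at 37 °C read by HTRF against a standard curve, scaled between buffer alone (0%) and top control ligand concentration (100%), four-parameter fit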;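 for Relative cAMP EC50, hGLP-1R: intracellular cAMP rise after 30 min at 37 °C read by HTRF, normalized between buffer only (0%) and maximal control ligand (100%), four-parameter variable-slope fit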;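 for Relative cAMP EC50, hGcgR: intracellular cAMP rise after 30 min at 37 °C, read by HTRF against a cAMP standard curve, scaled from buffer only (0%) to maximal control ligand response (100%)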
[5] = target: T2, hGLP-1R; experiment: as above; details: read-out: Relative cAMP EC50, hGLP-1R
[6] = target: hGcgR (Homo sapiens, UniProt P47871); experiment: as above; details: read-out: Relative cAMP EC50, hGcgR;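 note: intracellular cAMP rise after 30 min at 37 °C, read by HTRF against a cAMP standard curve, scaled from buffer only (0%) to maximal control ligand response (100%)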
Sequence of hGcgR (P47871 26-477): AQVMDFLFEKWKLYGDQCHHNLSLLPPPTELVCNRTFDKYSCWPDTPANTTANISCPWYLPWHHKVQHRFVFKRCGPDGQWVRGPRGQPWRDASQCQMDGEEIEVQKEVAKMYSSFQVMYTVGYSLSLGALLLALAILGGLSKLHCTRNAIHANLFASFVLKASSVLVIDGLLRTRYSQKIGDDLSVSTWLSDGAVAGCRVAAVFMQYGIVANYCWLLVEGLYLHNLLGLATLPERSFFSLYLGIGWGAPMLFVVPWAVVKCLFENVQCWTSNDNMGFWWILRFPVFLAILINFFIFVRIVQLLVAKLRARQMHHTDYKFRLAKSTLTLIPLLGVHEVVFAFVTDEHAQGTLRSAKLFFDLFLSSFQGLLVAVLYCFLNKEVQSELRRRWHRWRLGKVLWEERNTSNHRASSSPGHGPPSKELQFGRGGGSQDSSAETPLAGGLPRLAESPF

Sequence of human GcgR (P47871 26-477): as above
T2 sequence (P43220 24-463): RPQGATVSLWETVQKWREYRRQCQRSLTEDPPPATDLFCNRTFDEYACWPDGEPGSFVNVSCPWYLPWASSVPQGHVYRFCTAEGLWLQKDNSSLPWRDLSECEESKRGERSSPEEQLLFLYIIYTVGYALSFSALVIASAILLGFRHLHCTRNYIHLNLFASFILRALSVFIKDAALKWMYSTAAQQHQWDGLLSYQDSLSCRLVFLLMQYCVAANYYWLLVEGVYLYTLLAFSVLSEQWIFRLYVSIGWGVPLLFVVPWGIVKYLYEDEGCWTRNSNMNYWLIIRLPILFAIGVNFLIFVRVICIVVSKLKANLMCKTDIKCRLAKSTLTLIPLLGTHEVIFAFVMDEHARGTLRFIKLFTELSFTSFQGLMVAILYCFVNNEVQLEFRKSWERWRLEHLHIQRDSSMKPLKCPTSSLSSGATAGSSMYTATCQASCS

Row | Substance | EC50 [1] [nM] | EC50 [2] [nM] | EC50 [3] [nM] | EC50 [4] [nM] | EC50 [5] [nM] | EC50 [6] [nM]
1 | H-Y[Aib]QGT[αMePhe(2-F)]TSD[4Pal][αMeS]I[αMeL]LD[Orn]K([γGlu-γGlu-C18 diacid])AQ[Aib][Orn]FI[dE][αMeY]LSEGGPSSGEPPPSGAEE-NH2 [Example 567] | 13.4 | 102 | 521 | 0.165 | 1.07 | 5.89
2 | H-Y[Aib]QGT[αMePhe(2-F)]TSD[4Pal][αMeS]I[αMeL]LD[Orn]K([γGlu-γGlu-C18 diacid])AQ[Aib][Orn]FI[dE][αMeY]LSEGGPSSGEPPPSGGE-NH2 [Example 559] | 9.15 | 49.7 | 323 | 0.119 | 0.542 | 4.07
3 | H-Y[Aib]QGT[αMePhe(2-F)]TSD[4Pal][αMeS]I[αMeL]LD[Orn]K([γGlu-γGlu-C18 diacid])AQ[Aib][Orn]FI[dE][αMeY]LSEGGPSSGEPPPSGGEE-NH2 [Example 568] | 13.2 | 116 | 477 | 0.125 | 0.986 | 6.13
4 | H-Y[Aib]QGT[αMePhe(2-F)]TSD[4Pal][αMeS]I[αMeL]LD[Orn]K([γGlu-γGlu-C18 diacid])AQ[Aib][Orn]FI[dE][αMeY]LSEGGPSSGEPPPSGQEE-NH2 [Example 570] | 13.6 | 95.1 | 648 | 0.186 | 1.03 | 5.88
5 | H-Y[Aib]QGT[αMePhe(2-F)]TSD[4Pal][αMeS]I[αMeL]LD[Orn]K([γGlu-γGlu-C18 diacid])AQ[Aib][Orn]FI[dE][αMeY]LSEGGPSSGEPPPSGSE-NH2 [Example 560] | 7.94 | 52 | 355 | 0.113 | 0.883 | 3.8
6 | H-Y[Aib]QGT[αMePhe(2-F)]TSD[4Pal][αMeS]I[αMeL]LD[Orn]K([γGlu-γGlu-C18 diacid])AQ[Aib][Orn]FI[dE][αMeY]LSEGGPSSGEPPPSGTE-NH2 [Example 517] | 9.12 | 50 | 337 | 0.158 | 0.646 | 4.69
7 | H-Y[Aib]QGT[αMePhe(2-F)]TSD[4Pal][αMeS]I[αMeL]LD[Orn]K([γGlu-γGlu-C18 diacid])AQ[Aib][Orn]FI[dE][αMeY]LSEGGPSSGEPPPSGTEE-NH2 [Example 561] | 10.1 | 76.1 | 544 | 0.212 | 1.13 | 5.43
8 | H-Y[Aib]QGT[αMePhe(2-F)]TSD[4Pal][αMeS]I[αMeL]LD[Orn]K([γGlu-γGlu-C18 diacid])AQ[Aib][Orn]FI[dE][αMeY]LSEGGPSSGEPPPSGTEEE-NH2 [Example 562] | 10.2 | 89.5 | 427 | 0.284 | 1.67 | 6
9 | H-Y[Aib]QGT[αMePhe(2-F)]TSD[4Pal][αMeS]I[αMeL]LD[Orn]K([γGlu-γGlu-C18 diacid])AQ[Aib][Orn]FI[dE][αMeY]LSEGGPSSGEPPPSGTGE-NH2 [Example 518] | 7.1 | 51 | 265 | 0.129 | 0.867 | 3.93
10 | H-Y[Aib]QGT[αMePhe(2-F)]TSD[4Pal][αMeS]I[αMeL]LD[Orn]K([γGlu-γGlu-C18 diacid])AQ[Aib][Orn]FI[dE][αMeY]LTEGGPSSGEPPPEGTEEE-NH2 [Example 598] | 3.49 | 47.3 | 457 | 0.0927 | 0.886 | 8.79
11 | H-Y[Aib]QGT[αMePhe(2-F)]TSD[4Pal][αMeS]I[αMeL]LD[Orn]K([γGlu-γGlu-C18 diacid])AQ[Aib][Orn]FI[dE][αMeY]LTEGGPSSGEPPPSGTE-NH2 [Example 542] | 1.69 | 29.6 | 256 | 0.0336 | 0.388 | 5.03

— patent US20240270821A1, “GIP/GLP1/GCG TRI-RECEPTOR AGONISTS AND USES THEREOF” (priority 2023, published 2024)
